Columns and labels:
B16F10 cells = assay: Antiproliferative activity, MTT protocol; format: cell-based, mouse; conditions: 0.01 mg/mL, 72 h, relative to control culture
Procedure: Mouse melanoma (B16F10), human lung carcinoma (A549), and human cervix (HeLa) cell lines (kindly gifted by Prof. Tomasz Drewa, a Chair of Urology, Department of Regenerative Medicine, Collegium Medicum, Nicolaus Copernicus University, Bydgoszcz, Poland) were cultivated at 37 °C, controlled CO2 atmosphere (Binder, Tuttlingen, Germany), and high humidity with RPMI cell culture medium (with L-glutamine and sodium bicarbonate, Sigma-Aldrich), supplemented with 10% of fetal bovine serum (FBS, Biowest, Nuaillé, France), as well as antibiotics (penicillin, streptomycin) and antimycotics (amphotericin B) (Sigma-Aldrich). Combretastatin A4 (CA4), doxorubicin (DoX), and […] were purchased from Sigma-Aldrich.
Cells were counted with an automated cell counter (Countess® II FL, Invitrogen by Thermo Fisher Scientific Inc., Waltham, MA, USA). […] Absorbance readout was conducted using plate reader Multiskan Spectrum (Thermo Electron Corporation, Waltham, MA, USA) at 570 nm.
Combretastatin A4 (CA4), doxorubicin (DX), and […] were employed as positive controls. Biological evaluation was performed as three independent experiments; mean response and standard deviation were calculated using Excel software (v. 2013, Microsoft Corporation, Redmond, WA, USA).

[1] = system: Human Serum Albumin (HSA); assay: Binding to albumin, fluorescence quenching; conditions: calculated from association constant KS for albumin concentration in blood of 44 mg/mL (660 μM)
Procedure: Fluorescence lifetime and fluorescence intensity of HSA solutions were measured using the time-resolved Fluorescence Spectrophotometer Life Spec II (Edinburgh Instruments Ltd., Livingston, UK) with the sub-nanosecond pulsed EPLED diode emitting a light of the wavelength 280 nm. The spectrometer was equipped with electronically cooled photomultiplier Hamamatsu R928 connected with TCC900 PC Card, which incorporates all the electronic modules required for Time-Correlated Single Photon Counting (TCSPC). The fluorescence decays were recorded at an emission wavelength of 350 nm. The data were fitted with an exponential decay to obtain total fluorescence intensity and lifetime. Measurements were performed at room temperature using quartz cuvettes 3.5 × 10 mm. The exposure time of the sample was 30 s. A spectrophotometer Jasco V-550 was used for absorption measurements.
Human Serum Albumin (HSA, 97%) was purchased from Sigma Aldrich. For the fluorescence quenching measurements, the 10 µM PBS solution of HSA at pH 7.4 was prepared, and 10 mM stock solutions of studied compounds were prepared in DMSO (dimethylsulfoxide). The final concentration of studied compounds in HSA solution varied between 0 and 70 µM.
Fluorescence quenching of albumin can be described by the Stern–Volmer Equation [21]: (3) F0/F=KSV[Q]+1, where F0 and F are the fluorescence intensities in the absence and presence of quencher, respectively, [Q] is the concentration of quencher, and KSV is the Stern–Volmer quenching constant.
Due to the fact that a quencher can absorb light at the excitation and/or emission wavelengths, the measured intensity should be corrected according to the Formula [22]:(4) Fobserved=Fcorrect×10^−Aex×dex/2−Aem×dem/2, where Fobserved is the measured fluorescence, Fcorrect is the fluorescence that would be measured in the absence of absorption effect, Aex and Aem are the absorbances of ligand at the excitation (280 nm) and emission wavelength (350 nm), respectively, and dex and dem are the cuvette pathlength in the excitation and emission direction (0.35 cm and 1 cm, respectively).
As the fluorophore can be quenched by collisions or by complex formation with the quencher, there are two types of quenching: dynamic and static. They can be distinguished by lifetime measurements. […] If the quenching is known to be dynamic, then:(5) F0/F=KD[Q]+1=τ0/τ, where τ0 and τ are the lifetimes in the absence and presence of quencher, and KD is the dynamic quenching constant.
In many cases, both static and dynamic quenching occurs for the same fluorophore, then modified Stern–Volmer equation has the form:(6) F0/F=(KD[Q]+1)(KS[Q]+1)=τ0/τ(KS[Q]+1),
The dynamic portion of the quenching (KD[Q] + 1), according to Equation (5), can be determined by lifetime measurements. The portion (KS[Q] + 1) relates to static quenching, and KS is the association constant, which is given by:(7) KS=[F−Q]/[F][Q], where [F−Q] is the concentration of complex fluorophore–quencher, [F] is the concentration of uncomplexed fluorophore (concentration of free HSA molecules), and [Q] is the concentration of quencher.
In this study, the tested compounds were added to the HSA solution, and the fluorescence intensity and lifetime at 350 nm were measured for varying concentrations of ligands. On the basis of absorbance measurements of ligands at 280 nm and 350 nm, the correct fluorescence intensities were estimated using Equation (4). Then, the Stern–Volmer constants, dynamic quenching constants, and association constants of studied compounds were determined using Equations (3), (5) and (6), respectively.
Knowing the value of association constant KS, it is possible to determine the theoretical percentage of the bound and free fraction of the drug for the physiological concentration of albumin. […]

[2] = Chromatographic (RP-HPLC) examination of lipophilicity, Snyder–Soczewiński model; format: physicochemical
Procedure: The chromatographic analysis was carried out on a Shimadzu device equipped with a pump system (LC-20AD model), a detector with a diode bench (SPD-M20A model), a degasser (DGU-20A 5R model), a chromatographic oven (CTO-10AS VP), autosampler (SIL-20AC HT model), and chromatographic column (LiChrospher 100 RP-18, 5 μm, Poznań, Poland). Analyses were performed, leading to a multicratic elution. The mobile phase was methanol (J. T. Backer, Phillipsburg, NJ, USA) or acetonitrile (J. T. Backer) and water (Hydrolab, HPL5UV model, Straszyn, Poland) in different volume ratios. In individual analyses, the concentration of the organic modifier expressed as a […] was 0.75–0.95 with a constant step of 0.05. The test compounds were dissolved in methanol. The injection volume was 10 µL. The flow was set at 1 mL/min, the temperature of the chromatography oven at 25 °C, and the detector temperature at 2 °C higher than the ambient temperature. Compounds were detected in the range 190–800 nm. All samples were tested in duplicate at least. Column dead time (tM) was determined using uracil (Sigma Aldrich). The retention coefficient was calculated using the following formula:(1) k=tR/tM−1, where tR is the retention time of the test compound in a given eluent composition, and tM is the chromatographic column dead time.
The value of lipophilicity was determined using the linear dependence of the decimal logarithm from the retention coefficient (logk) and the concentration of the organic modifier in the mobile phase, which was expressed as a volume fraction. For this purpose, the following formula was used:(2) logk=logkw+Sφ, where logk is the decimal logarithm of the retention coefficient, logkw is the value obtained by extrapolating the curve, S is the slope of the regression curve, and φ is the volume fraction of the organic modifier.
The coefficient of determination (R^2) was also calculated for the prepared curves.

SMILES: O=C1C(=Cc2cccc3ccccc23)C(=O)c2ccccc21 [Compound 3F, 2-[(naphthalen-1-yl)methylidene]-1H-indene-1,3(2H)-dione]
- Response of B16F10 cells (in words) (B16F10 cells): responded best
- bound fraction (albumin) [1]: 93%
- fraction unbound ([1]; human, human serum albumin solution (10 µM HSA), pH 7.4, read-out: free fraction (albumin)): 0.07
- logkw (ACN) ([2]; RP-HPLC, acetonitrile as organic modifier, extrapolated Snyder–Soczewiński curve): 2.6107
- logkw (MeOH) ([2]; RP-HPLC, methanol as organic modifier, extrapolated Snyder–Soczewiński curve): 3.9640
- Δ = |logkw-MeOH − logkw-ACN| ([2]; difference of logkw between modifiers): 1.3533
- −S (ACN) ([2]; slope of the Snyder–Soczewiński regression curve, acetonitrile as organic modifier): 2.7449
- −S (MeOH) ([2]; slope of the Snyder–Soczewiński regression curve, methanol as organic modifier): 3.8549

— publication PMC8434099, “Selected Drug-Likeness Properties of 2-Arylidene-indan-1,3-dione Derivatives—Chemical Compounds with Potential Anti-Cancer Activity” (Molecules, 2021)
